This passage reports chromatographic logP results from patent US20210378240A1, “OXETANYLPHENOXYQUINOLINES AND ANALOGUES” (Bayer Aktiengesellschaft, priority 2018, published 2021).

Method: In table 1, the logP values were determined in accordance with EEC Directive 79/831 Annex V.A8 by HPLC (High Performance Liquid Chromatography) on a reversed-phase column (C 18), using the method to described below:
temperature: 40° C.; mobile phases: 0.1% aqueous formic acid and acetonitrile; linear gradient from 10% acetonitrile to 95% acetonitrile;
Calibration was carried out using unbranched alkan-2-ones (comprising 3 to 16 carbon atoms) with known logP values (determination of the logP values by the retention times using linear interpolation between two successive alkanones). lambda-max-values were determined using UV-spectra from 200 nm to 400 nm and the peak values of the chromatographic signals.

As a reminder, the chromatographic logP is a lipophilicity value derived from retention on a column. Low values mean lower lipophilicity, high ones higher lipophilicity. `Cc1nc2c(F)c(F)ccc2cc1Cc1ccccc1Br` [3-(2-bromobenzyl)-7,8-difluoro-2-methylquinoline] registered a chromatographic logP of 4.26.

Turning to `O=[N+]([O-])c1cccc(F)c1OC1COC1` [3-(2-fluoro-6-nitrophenoxy)oxetane], the chromatographic logP was determined as 2.

Molecule `Nc1cccc(F)c1OC1COC1` [3-fluoro-2-(oxetan-3-yloxy)-aniline, 3-fluoro-2-(oxetan-3-yloxy)aniline] yielded a chromatographic logP of 1.32.

`Cc1nc2c(F)c(F)ccc2cc1Oc1ccccc1C1OCC1(C)C` (centres unmarked) [I.01, 3-[2-(3,3-dimethyloxetan-2-yl)phenoxy]-7,8-difluoro-2-methyl-quinoline] gave a chromatographic logP of 4.44.

The molecule `Cc1nc2c(F)c(F)ccc2cc1Oc1ccccc1C1COC1` [I.02, 7,8-difluoro-2-methyl-3-[2-(oxetan-3-yl)phenoxy]quinoline] had a chromatographic logP of 3.33.

Molecule `Cc1nc2c(F)c(F)ccc2cc1Oc1ccccc1N1CC2(COC2)C1` [I.03, 7,8-difluoro-2-methyl-3-[2-(2-oxa-6-azaspiro[3.3]heptan-6-yl)phenoxy]quinoline] showed a chromatographic logP of 3.48.

The molecule `Cc1nc2c(F)c(F)ccc2cc1Cc1ccccc1C1(C)COC1` [I.04, 7,8-difluoro-2-methyl-3-[2-(3-methyloxetan-3-yl)benzyl]quinoline] came in with a chromatographic logP of 3.47. This chromatographic logP and that of the molecule before are within 0.2 log units of each other.

For `Cc1nc2c(F)c(F)ccc2cc1Nc1cccc(F)c1CN1CC(F)(F)C1` [I.10, N-{2-[(3,3-difluoroazetidin-1-yl)methyl]-3-fluorophenyl}-7,8-difluoro-2-methylquinolin-3-amine], the chromatographic logP was 4.33.

`Cc1nc2c(F)c(F)ccc2cc1Cc1ccccc1C#CC1COC1` [I.14, 7,8-difluoro-2-methyl-3-[2-(oxetan-3-ylethynyl)benzyl]quinoline] gave a chromatographic logP of 3.66.

Take `Cc1nc2c(F)c(F)ccc2cc1Nc1cccc(F)c1OC1COC1` [I.15, 7,8-difluoro-N-[3-fluoro-2-(oxetan-3-yloxy)phenyl]-2-methylquinolin-3-amine]: the chromatographic logP turned out to be 3.28.

Molecule `Cc1nc2c(F)c(F)ccc2cc1Oc1ccccc1C(O)C(C)(C)CO` (centres unmarked) [IIa.01, 1-{2-[(7,8-difluoro-2-methylquinolin-3-yl)oxy]phenyl}-2,2-dimethylpropane-1,3-diol] returned a chromatographic logP of 2.96.

Molecule `Cc1nc2c(F)c(F)ccc2cc1Oc1cccc(I)c1C(O)C(C)(C)CO` (centres unmarked) [IIa.02, 1-{2-[(7,8-difluoro-2-methylquinolin-3-yl)oxy]-6-iodophenyl}-2,2-dimethylpropane-1,3-diol] gave a chromatographic logP of 3.57.

In the case of `O=Cc1ccccc1Nc1cnc2c(F)cccc2c1` [IV.01, 2-[(8-fluoroquinolin-3-yl)amino]benzaldehyde], the chromatographic logP is 2.88.

`O=Cc1c(F)cccc1Oc1cnc2ccccc2c1` [IV.02, 2-fluoro-6-(quinolin-3-yloxy)benzaldehyde]: the chromatographic logP was 2.43.

`Cc1nc2ccccc2cc1Oc1cccc(F)c1C=O` [IV.03, 2-fluoro-6-[(2-methylquinolin-3-yl)oxy]benzaldehyde] had a chromatographic logP of 2.32.

`Cc1nc2c(F)c(F)ccc2cc1Oc1ccccc1C=O` [IV.04, 2-[(7,8-difluoro-2-methylquinolin-3-yl)oxy]benzaldehyde] returned a chromatographic logP of 3.21.

Turning to `Cc1nc2c(F)c(F)ccc2cc1Oc1cccc(F)c1C=O` [IV.05, 2-[(7,8-difluoro-2-methylquinolin-3-yl)oxy]-6-fluorobenzaldehyde], the chromatographic logP was found to be 3.1.

For the molecule `Fc1cccc(Br)c1CN1CC(F)(F)C1` [IX_C, 1-(2-bromo-6-fluorobenzyl)-3,3-difluoroazetidine], the chromatographic logP amounted to 1.89.

The molecule `CC1(c2ccccc2CBr)COC1` [XIII.01, 3-[2-(bromomethyl)phenyl]-3-methyloxetane] displayed a chromatographic logP of 2.73.

Consider `CC1(c2ccccc2CO)COC1` [XIV.01, [2-(3-methyloxetan-3-yl)phenyl]methanol], for which the chromatographic logP is 1.3.
